# Results: patent publication US10774053B2, “HIV protease inhibitors” (Gilead Sciences, Inc., priority 2017, dated 2020)
# Tested on: HIV-1 (IIIB) in MT-4 cells
# Test: microbe, parasite or virus in culture
# Type: cell-based
# Conditions: Human immunodeficiency virus 1, IIIB, MT4, MT-4 cells, HIV-1; read-out: MT4 EC50
# Procedure: Compounds were serially diluted (1:3) in DMSO on 384-well polypropylene plates and further diluted 200-fold into complete RPMI media (10% FBS, 1% P/S) using the Biotek Micro Flow and Agilent ECHO acoustic dispenser. Each plate contained up to 8 test compounds, with negative (No Drug Control) and 5 uM AZT positive controls. MT-4 cells were pre-infected with 10 uL of either RPMI (mock-infected) or a fresh 1:250 dilution of an HIV-1 (IIIB) concentrated virus stock. Infected and uninfected MT-4 cells were further diluted in complete RPMI media and added to each plate using a Micro Flow dispenser. After 5 days incubation in a humidified and temperature controlled incubator (37° C.), Cell Titer Glo (Promega) was added to the assay plates to quantify the amount of luciferase.
row,Compound,EC50 [nM]
1,"CC(C)(C)C[C@]1(c2ccc(-c3cnn(C(F)F)c3)cc2)NC(=N)N([C@H](COC(=O)N[C@@H]2CC2(F)F)c2ccc(Cl)c(-n3ncnc3C(F)F)c2)C1=O (single isomer, unassigned) [Compound 334]",8.98
2,"C[C@@H](CC#N)C[C@]1(c2ccc(-c3cnn(C(F)F)c3)cc2)NC(=N)N([C@H](COC(=O)NC2(C(F)(F)F)CC2)c2ccc(Cl)c(-n3ncnc3C(F)F)c2)C1=O (single isomer, unassigned) [Compound 346]",31.9
3,"C[C@H](CC#N)C[C@]1(c2ccc(-c3cnn(C(F)F)c3)cc2)NC(=N)N([C@H](COC(=O)NC2(C(F)(F)F)CC2)c2ccc(Cl)c(-n3ncnc3C(F)F)c2)C1=O (single isomer, unassigned) [Compound 347]",32
4,COc1ccc([C@@]2(CC(C)(C)C)NC(=N)N([C@H](COC(=O)N(C)C)c3ccc(Cl)c(-c4ncccc4C)c3)C2=O)c(F)c1 [Compound 1],64.6
5,CN(C)C(=O)OC[C@H](c1ccc(Cl)c(-c2ncc(-c3ccccc3)s2)c1)N1C(=N)N[C@@](c2cc(F)cc(F)c2)(C2CC2)C1=O [Compound 2],3000
6,CN(C)C(=O)OC[C@H](c1ccc(Cl)c(-c2ncc(N3CCOCC3)s2)c1)N1C(=N)N[C@@](c2cc(F)cc(F)c2)(C2CC2)C1=O [Compound 3],5710
7,CN(C)C(=O)OC[C@H](c1ccc(Cl)c(-c2ncc(-c3ccccc3)o2)c1)N1C(=N)N[C@@](c2cc(F)cc(F)c2)(C2CC2)C1=O [Compound 4],3620
8,CN(C)C(=O)OC[C@H](c1ccc(Cl)c(-c2nccs2)c1)N1C(=N)N[C@@](c2cc(F)cc(F)c2)(C2CC2)C1=O [Compound 5],5710
9,CN(C)C(=O)OC[C@H](c1ccc(Cl)c(-c2nc(-c3ccccc3)cs2)c1)N1C(=N)N[C@@](c2cc(F)cc(F)c2)(C2CC2)C1=O [Compound 6],5710
10,Cc1ncoc1-c1cccc([C@@H](COC(=O)NC(C)C)N2C(=N)N[C@](CC(C)C)(c3ccccc3)C2=O)c1 [Compound 7],57100
11,COc1ccc([C@@]2(CC(C)(C)C)NC(=N)N([C@H](COC(=O)N(C)C)c3ccc(Cl)c(-c4ccccn4)c3)C2=O)c(F)c1 [Compound 8],277
12,COc1ccc([C@@]2(CC(C)(C)C)NC(=N)N([C@H](COC(=O)N(C)C)c3ccc(Cl)c(-c4nccn4C)c3)C2=O)c(F)c1 [Compound 9],1690
13,[H]/N=C1\N[C@](CC(C)(C)C)(c2ccc(-c3cnn(C(F)F)c3)cc2F)C(=O)N1[C@H](COC(=O)NC1CC1)c1ccc(Cl)c(-c2ncn[nH]2)c1 [Compound 11],35.5
14,[H]/N=C1\N[C@](CC(C)(C)C)(c2ccc(-c3cnn(C(F)F)c3)cc2F)C(=O)N1[C@H](COC(=O)NC1CC1)c1ccc(Cl)c(-c2ncccc2C)c1 [Compound 12],22.2
15,"[H]/N=C1\N[C@](CC(C)(C)C)(c2ccc(-c3cnn(C(F)F)c3)cc2)C(=O)N1[C@H](COC(=O)NC1CC1)c1ccc(Cl)c(-c2nccc(OC)n2)c1 [Compound 15, (S)-2-(4-chloro-3-(4-methoxypyrimidin-2-yl)phenyl)-2-((R)-4-(4-(1-(difluoromethyl)-1H-pyrazol-4-yl)phenyl)-2-imino-4-neopentyl-5-oxoimidazolidin-1-yl)ethyl cyclopropylcarbamate]",230
16,[H]/N=C1\N[C@](CC(C)(C)C)(c2ccc(-c3cnn(C(F)F)c3)cc2)C(=O)N1[C@H](COC(=O)NC1CC1)c1ccc(Cl)c(-c2ncc[nH]2)c1 [Compound 16],11.4
17,Cn1ncnc1-c1cc([C@@H](COC(=O)NC2CC2)N2C(=N)N[C@](CC(C)(C)C)(c3ccc(-c4cnn(C(F)F)c4)cc3)C2=O)ccc1Cl [Compound 18],9.56
18,CC(C)(C)C[C@]1(c2ccc(-c3cnn(C(F)F)c3)cc2)NC(=N)N([C@H](COC(=O)NC2CC2)c2ccc(Cl)c(-c3ncn[nH]3)c2)C1=O [Compound 19],49.9
19,CC(C)(C)C[C@]1(c2ccc(-c3cnccn3)cc2F)NC(=N)N([C@H](COC(=O)NC2CC2)c2ccc(Cl)c(-c3ncn[nH]3)c2)C1=O [Compound 21],63.8
20,CC(C)(C)C[C@]1(c2ccc(-c3cnn(C(F)F)c3)cc2)NC(=N)N([C@H](COC(=O)NC2CC2)c2ccc(Cl)c(-c3nc(Cl)c(Cl)[nH]3)c2)C1=O [Compound 23],70.4
21,CC(C)(C)C[C@]1(c2ccc(-c3cnn(C(F)F)c3)cc2)NC(=N)N([C@H](COC(=O)NC2CC2)c2ccc(Cl)c(-c3cc[nH]n3)c2)C1=O [Compound 24],68.2
22,CC(C)(C)C[C@]1(c2ccc(-c3cnccn3)cc2)NC(=N)N([C@H](COC(=O)NC2(C(F)(F)F)CC2)c2ccc(Cl)c(-c3ncn[nH]3)c2)C1=O [Compound 27],80.4

row,Compound,EC50 [nM]
1,CC(C)(C)C[C@]1(c2ccc(-c3cnccn3)cc2)NC(=N)N([C@H](COC(=O)NC2CC2)c2ccc(Cl)c(-c3ncn[nH]3)c2)C1=O [Compound 28],91.7
2,[H]/N=C1\N[C@](CC(C)(C)C)(c2ccc(-c3cnn(C(F)F)c3)cc2)C(=O)N1[C@H](COC(N)=O)c1ccc(Cl)c(-c2c[nH]cn2)c1 [Compound 29],228
3,[H]/N=C1\N[C@](CC(C)(C)C)(c2ccc(-c3cnn(C(F)F)c3)cc2)C(=O)N1[C@H](COC(=O)NC1CC1)c1ccc(Cl)c(-c2c[nH]cn2)c1 [Compound 30],120
4,CC(C)(C)C[C@]1(c2ccc(-c3cnn(C(F)F)c3)cc2)NC(=N)N([C@H](COC(=O)NC2(C)CC2)c2ccc(Cl)c(-c3ncn[nH]3)c2)C1=O [Compound 31],51
5,CC(C)(C)C[C@]1(c2ccc(-c3cnccn3)cc2)NC(=N)N([C@H](COC(=O)NC2(C)CC2)c2ccc(Cl)c(-c3ncn[nH]3)c2)C1=O [Compound 33],37.2
6,CC(C)(C)C[C@]1(c2ccc(-c3cnn(C(F)F)c3)cc2)NC(=N)N([C@H](COC(=O)NC2CC2)c2ccc(Cl)c(-c3ncnn3C(F)F)c2)C1=O [Compound 35],98.1
7,CC(C)(C)C[C@]1(c2ccc(-c3cnn(C(F)F)c3)cc2)NC(=N)N([C@H](COC(=O)NC2CC2)c2ccc(Cl)c(-c3cn(C(F)F)cn3)c2)C1=O [Compound 36],89.3
8,CC(C)(C)C[C@]1(c2ccc(-c3cnn(C(F)F)c3)cc2)NC(=N)N([C@H](COC(=O)NC2CC2)c2ccc(Cl)c(-c3cncn3C(F)F)c2)C1=O [Compound 37],219
9,CC(C)(C)C[C@]1(c2ccc(-c3cnn(C(F)F)c3)cc2)NC(=N)N([C@H](COC(=O)NC2CC2)c2ccc(Cl)c(-c3ncnn3C3CC3)c2)C1=O [Compound 38],9.83
10,[H]/N=C1\N[C@](CC(C)(C)C)(c2ccc(-c3cnn(C(F)F)c3)cc2)C(=O)N1[C@H](COC(=O)NC1CC1)c1ccc(Cl)c(-c2nncs2)c1 [Compound 39],29.8
11,Cc1nnc(-c2cc([C@@H](COC(=O)NC3CC3)N3C(=N)N[C@](CC(C)(C)C)(c4ccc(-c5cnn(C(F)F)c5)cc4)C3=O)ccc2Cl)[nH]1 [Compound 40],84.1
12,Cn1cc(-c2cc([C@@H](COC(=O)NC3CC3)N3C(=N)N[C@](CC(C)(C)C)(c4ccc(-c5cnn(C(F)F)c5)cc4)C3=O)ccc2Cl)nn1 [Compound 41],18.1
13,CC(C)(C)C[C@]1(c2ccc(-c3cnn(C(F)F)c3)cc2)NC(=N)N([C@H](CO)c2ccc(Cl)c(-c3ncn[nH]3)c2)C1=O [Compound 42],103
14,CC(C)(C)C[C@]1(c2ccc(-c3cnn(C(F)F)c3)cc2)NC(=N)N([C@H](COC(=O)NC2(C)CC2)c2ccc(Cl)c(-c3ncnn3C3CC3)c2)C1=O [Compound 43],8.18
15,[H]/N=C1\N[C@](CC(C)(C)C)(c2ccc(-c3cnn(C(F)F)c3)cc2)C(=O)N1[C@H](COC(=O)NC1CC1)c1ccc(Cl)c(-c2nnc(C3CC3)s2)c1 [Compound 44],246
16,CC(C)(C)C[C@]1(c2ccc(-c3cnn(C(F)F)c3)cc2)NC(=N)N([C@H](COC(=O)NC(C)(C)C(F)(F)F)c2ccc(Cl)c(-c3ncn[nH]3)c2)C1=O [Compound 45],31.7
17,CC(C)(C)C[C@]1(c2ccc(-c3cnn(C(F)F)c3)cc2)NC(=N)N([C@H](CO)c2ccc(Cl)c(-c3ncnn3C3CC3)c2)C1=O [Compound 46],37.6
18,CC(C)(C)C[C@]1(c2ccc(-c3cnn(C(F)F)c3)cc2)NC(=N)N([C@H](COC(=O)NC2(C)CC2)c2ccc(Cl)c(-c3ccccn3)c2)C1=O [Compound 47],60.9
19,[H]/N=C1\N[C@](CC(C)(C)C)(c2ccc(-c3cnn(C(F)F)c3)cc2)C(=O)N1[C@H](COC(=O)NC1CC1)c1ccc(Cl)c(-c2ncns2)c1 [Compound 48],80
20,[H]/N=C1\N[C@](CC(C)(C)C)(c2ccc(-c3cnn(C4CC4)c3)cc2)C(=O)N1[C@H](COC(=O)N1CC(F)(F)C1)c1ccc(Cl)c(-c2ccccn2)c1 [Compound 49],68.1
21,CC(C)(C)C[C@]1(c2ccc(-c3ccccn3)cc2)NC(=N)N([C@H](COC(=O)NC2(C(F)(F)F)CC2)c2ccc(Cl)c(-c3ncn[nH]3)c2)C1=O [Compound 60],28.5

# Same assay, conditions: Human immunodeficiency virus 1, IIIB, MT4, read-out: MT4 EC50 (nM)
row,Compound,EC50 [nM]
1,[H]/N=C1\N[C@](CC(C)(C)C)(c2ccc(OC)cc2F)C(=O)N1[C@H](COC(=O)N(C)C)c1ccc(Cl)c(-c2ncccc2F)c1 [Compound 10],91.9
2,[H]/N=C1\N[C@](CC(C)(C)C)(c2ccc(-c3cnn(C(F)F)c3)cc2F)C(=O)N1[C@H](COC(=O)NC1CC1)c1ccc(Cl)c(-c2ncccc2Cl)c1 [Compound 13],310
3,[H]/N=C1\N[C@](CC(C)(C)C)(c2ccc(-c3cnn(C(F)F)c3)cc2F)C(=O)N1[C@H](COC(=O)NC1CC1)c1ccc(Cl)c(-c2ncccn2)c1 [Compound 14],68.6
4,CC(C)(C)C[C@]1(c2ccc(-c3cnn(C(F)F)c3)cc2)NC(=N)N([C@H](COC(=O)NC2(C(F)(F)F)CC2)c2ccc(Cl)c(-c3ncn[nH]3)c2)C1=O [Compound 25],52.7
